Compound: O=C(Nc1cc(C(F)(F)F)cc(C(F)(F)F)c1)c1cc(Cl)ccc1O [IMD-0354] + O=C(c1cc(Cc2n[nH]c(=O)c3ccccc23)ccc1F)N1CCN(C(=O)C2CC2)CC1 [Olaparib] (partner 8 µM)
Test: relative viability (nuclei count vs DMSO), 5 days (fraction); higher = more cells survive
Conditions: first compound 0.04 µM
Method in brief: (§1)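 Cells from lung cancer lines were seeded into 1536-well plates and, one day later, dosed by pin tool. Treatments were either a single drug or a fixed dose of an anchor drug with five library-drug doses (not always all listed) in √10 steps. After 5 days, nuclei were stained in a one-step fixation (final 0.05% Triton X-100, 1% formaldehyde, 1 ug/ml Hoechst) and counted on 4× images, and relative viability is the treated-to-vehicle nuclei ratio, as the median of duplicate plates.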

| Cell Line | relative viability |
| --- | --- |
| EKVX | 0.964 |
| LC-2-ad | 0.699 |
| NCI-H2170 | 0.531 |
| NCI-H1975 | 1.07 |
| RERF-LC-KJ | 1.08 |
| ABC-1 | 1.13 |
| SK-MES-1 | 0.894 |
| NCI-H650 | 0.329 |
| PC-3 [JPC-3] | 1.25 |

Same assay, conditions: first compound 0.1265 µM

| Cell Line | relative viability |
| --- | --- |
| EKVX | 0.755 |
| LC-2-ad | 0.71 |
| NCI-H2170 | 0.647 |
| NCI-H1975 | 0.912 |
| RERF-LC-KJ | 0.969 |
| ABC-1 | 0.823 |
| SK-MES-1 | 0.643 |
| NCI-H650 | 0.355 |
| PC-3 [JPC-3] | 1.16 |

Same assay, conditions: first compound 0.4 µM

| Cell Line | relative viability |
| --- | --- |
| LC-2-ad | 0.466 |
| NCI-H2170 | 0.421 |
| NCI-H1975 | 0.437 |
| RERF-LC-KJ | 0.415 |
| ABC-1 | 0.404 |
| SK-MES-1 | 0.312 |
| NCI-H650 | 0.32 |
| PC-3 [JPC-3] | 0.839 |

Same assay, conditions: first compound 1.265 µM

| Cell Line | relative viability |
| --- | --- |
| EKVX | 0.634 |
| LC-2-ad | 0.364 |
| NCI-H2170 | 0.561 |
| NCI-H1975 | 0.191 |
| RERF-LC-KJ | 0.169 |
| SK-MES-1 | 0.19 |
| NCI-H650 | 0.211 |
| PC-3 [JPC-3] | 0.374 |

Same assay, conditions: first compound 4 µM

| Cell Line | relative viability |
| --- | --- |
| EKVX | 0.204 |
| LC-2-ad | 0.223 |
| NCI-H2170 | 0.185 |
| NCI-H1975 | 0.18 |
| RERF-LC-KJ | 0.229 |
| ABC-1 | 0.427 |
| SK-MES-1 | 0.226 |
| NCI-H650 | 0.144 |
| PC-3 [JPC-3] | 0.38 |

Compound: O=C(Nc1cc(C(F)(F)F)cc(C(F)(F)F)c1)c1cc(Cl)ccc1O [IMD-0354] + CC(=O)c1c(C)c2cnc(Nc3ccc(N4CCNCC4)cn3)nc2n(C2CCCC2)c1=O [Palbociclib] (partner 0.5 µM)
Test: as above
Conditions: first compound 0.04 µM
Method in brief: as §1

| Cell Line | relative viability |
| --- | --- |
| EKVX | 0.383 |
| LC-2-ad | 0.531 |
| NCI-H2170 | 0.425 |
| NCI-H1975 | 0.752 |
| RERF-LC-KJ | 1.29 |
| ABC-1 | 0.638 |
| SK-MES-1 | 0.337 |
| NCI-H650 | 0.301 |
| PC-3 [JPC-3] | 0.633 |

Same assay, conditions: first compound 0.1265 µM

| Cell Line | relative viability |
| --- | --- |
| EKVX | 0.343 |
| LC-2-ad | 0.451 |
| NCI-H2170 | 0.394 |
| NCI-H1975 | 0.569 |
| RERF-LC-KJ | 1.1 |
| ABC-1 | 0.778 |
| SK-MES-1 | 0.286 |
| NCI-H650 | 0.283 |
| PC-3 [JPC-3] | 0.578 |

Same assay, conditions: first compound 0.4 µM

| Cell Line | relative viability |
| --- | --- |
| LC-2-ad | 0.333 |
| NCI-H2170 | 0.342 |
| NCI-H1975 | 0.306 |
| RERF-LC-KJ | 0.776 |
| ABC-1 | 0.69 |
| SK-MES-1 | 0.317 |
| NCI-H650 | 0.322 |
| PC-3 [JPC-3] | 0.496 |

Same assay, conditions: first compound 1.265 µM

| Cell Line | relative viability |
| --- | --- |
| EKVX | 0.29 |
| LC-2-ad | 0.287 |
| NCI-H2170 | 0.385 |
| NCI-H1975 | 0.165 |
| RERF-LC-KJ | 0.642 |
| SK-MES-1 | 0.232 |
| NCI-H650 | 0.232 |
| PC-3 [JPC-3] | 0.363 |

Same assay, conditions: first compound 4 µM

| Cell Line | relative viability |
| --- | --- |
| EKVX | 0.215 |
| LC-2-ad | 0.181 |
| NCI-H2170 | 0.229 |
| NCI-H1975 | 0.178 |
| RERF-LC-KJ | 0.19 |
| ABC-1 | 0.432 |
| SK-MES-1 | 0.221 |
| NCI-H650 | 0.189 |
| PC-3 [JPC-3] | 0.282 |

Source: the supplement of paper PMC10307832
